We go through 3 molecules from patent publication US3944549A, “Amino derivatives of 1,4-benzodioxan” (priority 1972, dated 1976).

The nature of data set [1]: Acute toxicity, intravenous, in mice. Particulars: mouse, in vivo.
In data set [2] the test system is femoral artery. Briefly: Vasodilating properties: injection into the femoral artery in dogs. Format: in vivo. Conditions: injected locally into the femoral or vertebral artery. The method, then: On injection into the femoral artery, no effect is observed at doses of less than 100 μg/kg. […] At these doses, no effect is observed on the arterial pressure AP measured in accordance with the usual conditions.
When administered intra-arterially, the product of Example 6 is injected directly into the femoral artery. The flow rate is increased by 200% from a dose of 10 μg.

Data set [3] relates to vertebral artery. Kind of data set: Vasodilating properties: injection into the vertebral artery in dogs. Type of data set: in vivo. Particulars: injected locally into the femoral or vertebral artery. The method, then: On injection into the vertebral artery, no effect is observed at doses of less than 1 mg/kg. At a dose of 10 mg/kg, the flow rate increases by 37% and at a dose of 20 mg/kg it only increases by 27%. At these two doses, the arterial pressure decreases respectively by 14 and 28% although no effect had been observed during the injection into the femoral artery.

Data set [4] relates to intestinal barrier. Briefly: Intraduodenal administration in dogs: cardiovascular effects and passage through the intestinal barrier. Format: in vivo. Conditions: intraduodenally.
Method: (§1) In the case of intravenous administration, the tests were carried out on 4 anaesthetised dogs. The product is perfused intravenously over the course of 5 minutes at doses of 2.5, 5 and 10 mg/kg and, in one test, is administered intraduodenally at a dose of 10 mg/kg.
A short description of data set [5]: Analgesic activity, subcutaneous. Format: in vivo. Conditions: injected subcutaneously.
Data set [6] has as its system vertebral, femoral and mesenteric artery flow rates. Kind of data set: Vasodilating and cardiovascular properties on intravenous administration in dogs.
Method: During the series of pharmacological tests, the following parameters were used:
Arterial pressure (abbreviated to AP): this parameter, expressed in mm Hg) is evaluated in accordance with the usual conditions.
Arterial resistance: this parameter (expressed in dynes/sec./cm^-^5) is calculated according to the ratio [formula] Cardiac index: this parameter is expressed in (ml/min.)/kg. Systolic index: this parameter is equal to the ratio cardiac index/frequency.
Cardiac work: this parameter (expressed in kgm/min.) is calculated according to the relationship: Cardiac work = average AP (mm Hg) × 1.36 = cardiac output (1/min.) × 10^-^3.
Ratio dp/dt: this parameter corresponds to the variation in pressure expressed in mm Hg per second (in English: Rate of rise of left ventricular pressure).
The technique used to measure the ratio dp/dt is as follows:
The cardiac output is determined in Beagle dogs weighing 10 to 15 kg, anesthetised with pentobarbital, by injecting Carbiogreen (1 mg in 0.5 ml) into the right ventricle. A catheter introduced via the carotid artery into the aorta makes it possible to aspirate arterial blood at the rate of 25 ml/min. and to pass it in front of the photoelectric cell of a Beckman cardiodensitometer. The results are interpreted in accordance with the Hamilton method.
as §1
The test system of data set [7] is adrenergic receptors. Briefly: α-blocking action: reversal of the hypertensive effect of adrenalin. Format: in vivo, dogs.
Data set [8] is described as follows: Solubility in water. Type of data set: physicochemical.
In data set [9] the test system is vertigo. Kind of data set: Vertigo in clinical tests. Type of data set: in vivo, man.
Data set [10] has as its system digestive ulcers. Conditions: TOLDY et al. 1966; cited from earlier work.

Counter-ions that a name gives are not always drawn.

`CC(C)(C)c1ccc2c(c1)OCC(CN1CCN(CCO)CC1)O2` (stereo not shown) [Example 5, 1-[2-(6- or 7-{tertiarybutyl}-1,4-benzodioxanyl)-methyl]-4-(2-hydroxyethyl)-piperazine dihydrochloride]: the LD50 in [1] (read-out: LD-50 I.V. in mice) is 140 ± 8 mg/kg. Besides, in data set [1] (read-out: Maximum non-toxic dose), the NOAEL came out at 100 mg/kg. Besides, the “femoral flow rate, local injection” value in data set [2] was “increases both these flow rates in proportion to the doses, but with a preference for the femoral flow rate”. The “vertebral flow rate, local injection” value in data set [3] is listed as “increases both these flow rates in proportion to the doses, but with a preference for the femoral flow rate”. Moreover, the minimal effective dose in [4] (Canis lupus familiaris, intraduodenal, read-out: dose from which the pulse rate decreases) came out at 7 mg/kg. Also, the vasodilating effect result in [4] (successively 3.5, 7, 15 and 35 mg/kg) is “no vasodilating effect”. Further, in data set [5], the analgesic activity result is listed as “analgesic activity of the morphine type”. In [6] (2 dogs, i.v.), the “dose dependence of femoral vasodilating action” value is on record as “not proportional to the dose”, the “dose from which femoral vasodilating action is maximum” value is listed as 3.5 mg/kg and the vertebral dilating action entry is given as “no vertebral dilating action”. Also, in data set [6] (2 dogs, i.v., 15 mg/kg (last dose)), the bradycardia entry is listed as “a bradycardia”. In addition, in data set [6] (2 dogs, i.v., from 3.5 mg/kg, increase (+)), the “femoral vasodilating action, maximum” value was found to be 60%. In addition, the “effect on the AP” value in [6] (2 dogs, i.v., up to 15 mg/kg) is reported as “no effect on the AP”. In data set [6] (summary), the vasodilating effect result is “exclusively peripheral and very moderate vasodilating effect”.

Take `OCCN1CCN(CC2COc3ccccc3O2)CC1` (stereo not shown) [Example 1, 1-[2-(1,4-Benzodioxanyl)-methyl]-4-(2-hydroxyethyl)-piperazine dihydrochloride]: the α-blocking activity entry in [7] (administered parenterally) was “α-blocking”. The solubility in water result in data set [8] was “soluble in water”. Moreover, in [9], the vertigo result was “caused vertigo in the majority of cases”.

As for `OCCN1CCN(CC2COc3ccccc3O2)CC1` (stereo not shown) [free base, 1-[2-(1,4-benzodioxanyl)-methyl]-4-(2-hydroxyethyl)-piperazine, reference compound], in data set [7] (orally to dogs), the “α-blocking activity (counteracting the hypertensive effects of adrenalin)” value is given as “does not show any α-blocking activity”. For the same molecule, the “activity in the treatment of digestive ulcers” value in data set [10] is on record as “devoid of such activity”.
